The numbers were not newly measured in US9895328B2, “Calcium formate as a supplement to prevent neural tube defects” (BOARD OF REGENTS, THE UNIVERSITY OF TEXAS SYSTEM, priority 2013, dated 2018), which cites them from elsewhere.

For data set [1], the system named is Folr1^−/− embryos. The settings on record: maternal supplementation, dose dependent ("tunable"); cited from earlier work.
Data set [2] deals with neural tube defects (NTDs). The settings on record: periconceptional intake of supplemental folic acid, some populations; cited from earlier work.
For data set [3], the system named is Amt null embryos. The settings on record: maternal supplementation; cited from earlier work.

Turning to `Nc1nc(=O)c2c([nH]1)NCC(CNc1ccc(C(=O)N[C@@H](CCC(=O)O)C(=O)O)cc1)N2C=O` (mixture of isomers) [5-formyl-THF], the “rescue of Folr1 knockout embryonic folate deficiency” value in data set [1] is “can be rescued”.
As for `Nc1nc2ncc(CNc3ccc(C(=O)NC(CCC(=O)O)C(=O)O)cc3)nc2c(=O)[nH]1` (stereo in doubt) [folic acid, pteroyl-L-glutamic acid], the “reduction of the incidence of NTDs” value in data set [2] is ≤ 70%. The “neurulation in Amt null embryos” value in data set [3] was “no effect”.
